Structure (SMILES) | melting point [°C]
C=C(C)Cc1cccc(Cl)c1Oc1nnc(Cl)cc1O [Compound No. 746, 6-Chloro-3-[2-chloro-6-(2-methyl-2-propenyl)phenoxy]-4-pyridazinol] | 198 to 200
COc1ccc(Oc2nnc(Cl)cc2O)cc1 [Compound No. 435, 6-Chloro-3-(4-methoxyphenoxy)-4-pyridazinol] | 260 to 263.5
Cc1c([N+](=O)[O-])ccc(C2CC2)c1Oc1nnc(Cl)cc1O [Compound No. 2589, 6-Chloro-3-(6-cyclopropyl-2-methyl-3-nitrophenoxy)-4-pyridazinol] | 140 to 143
Cc1ccc(C(=O)O)cc1Oc1nnc(Cl)cc1O [Compound No. 626, 3-[(6-Chloro-4-hydroxy-3-pyridazinyl)oxy]-4-methylbenzoic acid] | 238 to 240
COc1cccc(OC)c1Oc1nnc(Cl)cc1O [Compound No. 987, 6-Chloro-3-(2,6-dimethoxyphenoxy)-4-pyridazinol] | 199 to 201
COc1cccc(OC)c1C(=O)Oc1cc(Cl)nnc1Oc1c(C)cccc1C1CC1 [Compound No. 3162, 6-Chloro-3-(2-cyclopropyl-6-methylphenoxy)-4-pyridazinyl 2,6-dimethoxybenzoate] | 127 to 128
Cc1ccc(C)c(C2CC2)c1Oc1nnc(Cl)cc1O [Compound No. 1073, 6-Chloro-3-(2-cyclopropyl-3,6-dimethylphenoxy)-4-pyridazinol] | 171 to 175
CN(C)S(=O)(=O)n1nccc1-c1ccccc1Oc1nnc(Cl)cc1O [Compound No. 369, 5-{2-[(6-Chloro-4-hydroxy-3-pyridazinyl)oxy]phenyl}N,N-dimethyl-1H-pyrazole-1-sulfonamide] | 151 to 152
Cc1cccc(C2CC2)c1Oc1nnc(Cl)cc1OC(=O)c1ccc(C(F)(F)F)cc1 [Compound No. 2988, 6-Chloro-3-(2-cyclopropyl-6-methylphenoxy)-4-pyridazinyl 4-(trifluoromethyl)benzoate] | 127 to 128
Cc1ccccc1Oc1nncc(Cl)c1O [Compound No. 45, 5-Chloro-3-(2-methylphenoxy)-4-pyridazinol] | 238 to 243
CC=Cc1cc(O)c(Oc2ccccc2C)nn1 [Compound No. 2442, 3-(2-Methylphenoxy)-6-(1-propenyl)-4-pyridazinol] | 208 to 210
Cc1ccc(C)c(Oc2nnc(Cl)cc2O)c1Br [Compound No. 1040, 3-(2-Bromo-3,6-dimethylphenoxy)-6-chloro-4-pyridazinol] | 255 to 257
CC1COc2cccc(Oc3nnc(Cl)cc3O)c21 (stereo not shown) [Compound No. 529, 6-Chloro-3-[(3-methyl-2,3-dihydro-1-benzofuran-4-yl)oxy]-4-pyridazinol] | 238 to 245
COc1cccc(C2CC2)c1Oc1nnc(Cl)cc1O [Compound No. 964, 6-Chloro-3-(2-cyclopropyl-6-methoxyphenoxy)-4-pyridazinol] | 194 to 199
COc1cccc(Oc2nnc(Cl)cc2O)c1C1CC1 [Compound No. 478, 6-Chloro-3-(2-cyclopropyl-3-methoxyphenoxy)-4-pyridazinol] | 184 to 185
Oc1cc(Cl)nnc1Oc1c(Br)cccc1C1CC1 [Compound No. 762, 3-(2-Bromo-6-cyclopropylphenoxy)-6-chloro-4-pyridazinol] | 230 to 232
Oc1cc(Cl)nnc1Oc1cccc2ccoc12 [Compound No. 541, 3-(1-Benzofuran-7-yloxy)-6-chloro-4-pyridazinol] | 201 to 202
COc1ccccc1Oc1nnc(Cl)cc1O [Compound No. 385, 6-Chloro-3-(2-methoxyphenoxy)-4-pyridazinol] | 191 to 194
CSc1ccccc1Oc1nnc(Cl)cc1O [Compound No. 401, 6-Chloro-3-[2-(methylsulfanyl)phenoxy]-4-pyridazinol] | 174 to 175

Structure (SMILES) | melting point [°C]
Oc1cc(Cl)nnc1Oc1cccc(Cl)c1F [Compound No. 438, 6-Chloro-3-(3-chloro-2-fluorophenoxy)-4-pyridazinol] | 187 to 195
Oc1cc(Cl)nnc1Oc1ccccc1C1CCCC1 [Compound No. 292, 6-Chloro-3-(2-cyclopentylphenoxy)-4-pyridazinol] | 178 to 180
CC(C)(C)c1cccc(C2CC2)c1Oc1nnc(Cl)cc1O [Compound No. 914, 3-(2-tert-Butyl-6-cyclopropylphenoxy)-6-chloro-4-pyridazinol] | 230 to 231
Cc1c(F)cccc1Oc1nnc(Cl)cc1O [Compound No. 453, 6-Chloro-3-(3-fluoro-2-methylphenoxy)-4-pyridazinol] | 242 to 244
Cc1ccccc1Oc1nnc(Cl)c(Oc2ccccc2C)c1O [Compound No. 2395, 6-Chloro-3,5-bis(2-methylphenoxy)-4-pyridazinol] | 110 to 115
COc1ccc(OC)c(Oc2nnc(Cl)cc2O)c1 [Compound No. 709, 6-Chloro-3-(2,5-dimethoxyphenoxy)-4-pyridazinol] | 150 to 152
Oc1cc(Cl)nnc1Oc1cccc2occc12 [Compound No. 531, 3-(1-benzofuran-4-yloxy)-6-chloro-4-pyridazinol] | 220 to 225
Cc1ccccc1Oc1cc(O)c(Oc2ccccc2C)nn1 [Compound No. 2492, 3,6-Bis(2-methylphenoxy)-4-pyridazinol] | 247 to 250
C#Cc1ccccc1Oc1nnc(Cl)cc1O [Compound No. 308, 6-Chloro-3-(2-ethynylphenoxy)-4-pyridazinol] | 189 to 191
Oc1cc(Cl)nnc1Oc1c(Cl)cccc1C1CC1 [Compound No. 740, 6-Chloro-3-(2-chloro-6-cyclopropylphenoxy)-4-pyridazinol] | 224 to 225
Oc1cc(Cl)nnc1Oc1ccccc1F [Compound No. 124, 6-Chloro-3-(2-fluorophenoxy)-4-pyridazinol] | 210 to 212
Cc1cc(C)c(Br)c(Oc2nnc(Cl)cc2O)c1 [Compound No. 1013, 3-(2-Bromo-3,5-dimethylphenoxy)-6-chloro-4-pyridazinol] | 240 to 244
Cc1ccccc1Oc1nnc(Cl)cc1OC(=O)OCC(C)C [Compound No. 1757, 6-Chloro-3-(2-methylphenoxy)-4-pyridazinyl isobutyl carbonate] | 46 to 47
CN(C)C(=O)Oc1cc(Cl)nnc1Oc1cccc(C(F)(F)F)c1 | 92 to 93
Oc1cc(Cl)nnc1Oc1cccc2c1CCCC2 [Compound No. 521, 6-Chloro-3-(5,6,7,8-tetrahydro-1-naphthalenyloxy)-4-pyridazinol] | 232 to 237
CN(C)C(=O)Oc1cc(Cl)nnc1Oc1ccccc1C1CC1 | 137 to 138
Cc1ccc2occc2c1Oc1nnc(Cl)cc1O [Compound No. 1109, 6-Chloro-3-[(5-methyl-1-benzofuran-4-yl)oxy]-4-pyridazinol] | 222 to 225
Cc1ccccc1Oc1nnc(Cl)cc1OC(=O)c1ccccc1C [Compound No. 1446, 6-Chloro-3-(2-methylphenoxy)-4-pyridazinyl 2-methylbenzoate] | 91 to 93
